Test results from patent US20230114728A1 (Venatorx Pharmaceuticals, Inc., priority 2019, published 2023).
Values after ≈ are worked out from the molar mass of the structure shown.

Legend:
Type in all cases: cell-based
[1] = system: K. pneumoniae 848844 producing SHV-11 and KPC-2; test: Broth microdilution MIC in CAMHB; details: Klebsiella pneumoniae, read-out: Minimum Inhibitory Concentration, K. pneumoniae 848844
Summary of the method: (§1)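 CLSI broth microdilution in CAMHB: 2-fold compound dilutions inoculated at 2-8×10^5 CFU/mL from 3-5 h log-phase cultures. Incubated at 37 °C for 16-20 h (Enterobacteriaceae, Pseudomonas); MIC read visually as lowest concentration without growth. Strains include hyper-permeable and efflux-deficient mutants.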

E. coli AG100 = test: Broth microdilution MIC in CAMHB; details: Escherichia coli; E. coli AG100 (wild-type parent); MHB; read-out: Minimum Inhibitory Concentration, E. coli AG100
Summary of the method: as §1

[2] = system: K. pneumoniae UMM producing SHV-5 and KPC-2; test: Broth microdilution MIC in CAMHB; details: Klebsiella pneumoniae, read-out: Minimum Inhibitory Concentration, K. pneumoniae UMM
Summary of the method: as §1

A. baumannii ATCC 19606 = test: Broth microdilution MIC in CAMHB; details: Acinetobacter baumannii, ATCC19606; MHB; read-out: Minimum Inhibitory Concentration, A. baumannii ATCC 19606
Summary of the method: as §1

[3] = system: K. pneumoniae SI-117 producing VIM-1; test: Broth microdilution MIC in CAMHB; details: Klebsiella pneumoniae, read-out: Minimum Inhibitory Concentration, K. pneumoniae SI-117
Summary of the method: as §1

P. aeruginosa ATCC 27853 = test: Broth microdilution MIC in CAMHB; details: Pseudomonas aeruginosa, ATCC27853; MHB; read-out: Minimum Inhibitory Concentration, P. aeruginosa ATCC 27853
Summary of the method: as §1

E. coli ATCC 25922 = test: Broth microdilution MIC in CAMHB; details: Escherichia coli, ATCC25922; E. coli ATCC 25922; MHB; read-out: Minimum Inhibitory Concentration, E. coli 25922
Summary of the method: as §1

[4] = system: P. aeruginosa (ΔmexAB-oprM); test: Broth microdilution MIC in CAMHB; details: Pseudomonas aeruginosa, read-out: Minimum Inhibitory Concentration, P. aeruginosa ΔmexAB-OprM
Summary of the method: as §1

P. aeruginosa ATCC 35151 = test: Broth microdilution MIC in CAMHB; details: Pseudomonas aeruginosa, ATCC35151; MHB; hyper-permeable strain; read-out: Minimum Inhibitory Concentration, P. aeruginosa ATCC 35151
Summary of the method: as §1

E. coli D22 = test: Broth microdilution MIC in CAMHB; details: Escherichia coli; E. coli D22 (hyper-permeable); MHB; read-out: Minimum Inhibitory Concentration, E. coli D22
Summary of the method: as §1

E. coli AG100A = test: Broth microdilution MIC in CAMHB; details: Escherichia coli, read-out: Minimum Inhibitory Concentration, E. coli AG100A
Summary of the method: as §1

E. coli 901C = test: Broth microdilution MIC in CAMHB; details: Escherichia coli; E. coli 901C (hyper-permeable); MHB; read-out: Minimum Inhibitory Concentration, E. coli 901C
Summary of the method: as §1

N. gonorrhoeae WHO Z = test: Liquid broth MIC in Fastidious broth; details: Neisseria gonorrhoeae, read-out: Minimum Inhibitory Concentration, N. gonorrhoeae WHO Z
Summary of the method: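 Broth microdilution in Fastidious broth with 2-fold compound series; inoculum from 24 h chocolate agar colonies, 5×10^5 CFU/mL start. Incubated ~24 hours at 36° C, 5% CO2. MIC read visually as lowest concentration giving <10% growth versus full-growth wells; strains carry mosaic PBP2.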

| Structure (SMILES) | MIC [1] | MIC (E. coli AG100) | MIC [2] | MIC (A. baumannii ATCC 19606) | MIC [3] | MIC (P. aeruginosa ATCC 27853) | MIC (E. coli ATCC 25922) | MIC [4] | MIC (P. aeruginosa ATCC 35151) | MIC (E. coli D22) | MIC (E. coli AG100A) | MIC (E. coli 901C) | MIC (N. gonorrhoeae WHO Z) |
| --- | --- | --- | --- | --- | --- | --- | --- | --- | --- | --- | --- | --- | --- |
| CCN1CCN(C(=O)NC(C(=O)N[C@H]2Cc3ccc(F)c(C(=O)O)c3OB2O)c2ccc(C(=O)O)cc2)C(=O)C1=O (stereo partly drawn) [Example 15, (3R)-3-(2-(4-carboxyphenyl)-2-(4-ethyl-2,3-dioxopiperazine-1-carboxamido)acetamido)-7-fluoro-2-hydroxy-3,4-dihydro-2H-benzo[e][1,2]oxaborinine-8-carboxylic acid] | > 128 µg/mL | > 128 µg/mL | > 128 µg/mL | > 128 µg/mL | > 128 µg/mL | 32 to 64 µg/mL (≈ 56.1 to 112 µM) | > 128 µg/mL | 8 to 16 µg/mL (≈ 14 to 28.1 µM) | < 0.25 µg/mL | 8 to 16 µg/mL (≈ 14 to 28.1 µM) | 32 to 64 µg/mL (≈ 56.1 to 112 µM) | 0.5 to 1 µg/mL (≈ 0.877 to 1.75 µM) | 1 to 2 µg/mL (≈ 1.75 to 3.51 µM) |
| N=C(N)NCCN1CCN(C(=O)NC(C(=O)N[C@H]2Cc3ccc(F)c(C(=O)O)c3OB2O)c2ccc(C(=O)O)c(F)c2)C(=O)C1=O (stereo partly drawn) [Example 78, (3R)-3-(2-(4-carboxy-3-fluorophenyl)-2-(4-(2-guanidinoethyl)-2,3-dioxopiperazine-1-carboxamido)acetamido)-7-fluoro-2-hydroxy-3,4-dihydro-2H-benzo[e][1,2]oxaborinine-8-carboxylic acid] | > 128 µg/mL | > 128 µg/mL | > 128 µg/mL | > 128 µg/mL | > 128 µg/mL | 32 to 64 µg/mL (≈ 49.6 to 99.2 µM) | > 128 µg/mL | 32 to 64 µg/mL (≈ 49.6 to 99.2 µM) | 0.5 to 1 µg/mL (≈ 0.775 to 1.55 µM) | 8 to 16 µg/mL (≈ 12.4 to 24.8 µM) | > 128 µg/mL | 2 to 4 µg/mL (≈ 3.1 to 6.2 µM) | 16 to 32 µg/mL (≈ 24.8 to 49.6 µM) |
| CCN1CCN(C(=O)N[C@H](C(=O)N[C@H]2Cc3cccc(C(=O)O)c3OB2O)c2cc(O)cc(O)c2)C(=O)C1=O (single isomer, unassigned) [Example 81] | > 128 µg/mL | 32 to 64 µg/mL (≈ 59.2 to 118 µM) | > 128 µg/mL | > 128 µg/mL | > 128 µg/mL | > 128 µg/mL | 32 to 64 µg/mL (≈ 59.2 to 118 µM) | 32 to 64 µg/mL (≈ 59.2 to 118 µM) | 2 to 4 µg/mL (≈ 3.7 to 7.4 µM) | 8 to 16 µg/mL (≈ 14.8 to 29.6 µM) | 8 to 16 µg/mL (≈ 14.8 to 29.6 µM) | 0.5 to 1 µg/mL (≈ 0.925 to 1.85 µM) | 16 to 32 µg/mL (≈ 29.6 to 59.2 µM) |
| CCN1CCN(C(=O)NC(C(=O)N[C@H]2Cc3cccc(C(=O)O)c3OB2O)c2cccc(NC(=O)c3cncnc3)c2)C(=O)C1=O (stereo partly drawn) [Example 96, (3R)-3-(2-(4-ethyl-2,3-dioxopiperazine-1-carboxamido)-2-(3-(pyrimidine-5-carboxamido)phenyl)acetamido)-2-hydroxy-3,4-dihydro-2H-benzo[e][1,2]oxaborinine-8-carboxylic acid] | > 128 µg/mL | > 128 µg/mL | > 128 µg/mL | > 128 µg/mL | > 128 µg/mL | > 128 µg/mL | > 128 µg/mL | 32 to 64 µg/mL (≈ 50.8 to 102 µM) | 2 to 4 µg/mL (≈ 3.18 to 6.36 µM) | 8 to 16 µg/mL (≈ 12.7 to 25.4 µM) | 8 to 16 µg/mL (≈ 12.7 to 25.4 µM) | 0.5 to 1 µg/mL (≈ 0.794 to 1.59 µM) | > 64 µg/mL |
| CCN1CCN(C(=O)NC(C(=O)N[C@H]2Cc3cccc(C(=O)O)c3OB2O)c2cc(O)cc(O)c2)C(=O)C1=O (mixture of isomers) [Example 79, (3R)-3-(2-(3,5-dihydroxyphenyl)-2-(4-ethyl-2,3-dioxopiperazine-1-carboxamido)acetamido)-2-hydroxy-3,4-dihydro-2H-benzo[e][1,2]oxaborinine-8-carboxylic acid] | 32 to 64 µg/mL | 8 to 16 µg/mL | 8 to 16 µg/mL | > 128 µg/mL | 32 to 64 µg/mL | > 128 µg/mL | 8 to 16 µg/mL | 2 to 4 µg/mL | 0.5 to 1 µg/mL | 2 to 4 µg/mL | 2 to 4 µg/mL | < 0.25 µg/mL | 4 to 8 µg/mL |
| NCCN1CCN(C(=O)N[C@H](C(=O)N[C@H]2Cc3cccc(C(=O)O)c3OB2O)c2ccc(O)cc2F)C(=O)C1=O (single isomer, unassigned) [Example 88] | > 128 µg/mL | > 128 µg/mL | > 128 µg/mL | > 128 µg/mL | > 128 µg/mL | > 128 µg/mL | > 128 µg/mL | > 128 µg/mL | 2 to 4 µg/mL (≈ 3.59 to 7.18 µM) | 32 to 64 µg/mL (≈ 57.4 to 115 µM) | 32 to 64 µg/mL (≈ 57.4 to 115 µM) | 8 to 16 µg/mL (≈ 14.4 to 28.7 µM) | > 64 µg/mL |
